Measurements taken from patent US20190241569A1, “3-(ARYL OR HETEROARYL) METHYLENEINDOLIN-2-ONE DERIVATIVES AS INHIBITORS OF CANCER STEM CELL PATHWAY KINASES FOR THE TREATMENT OF CANCER” (Boston Biomedical, Inc., priority 2013, published 2019).

Key:
Assay type in all cases: cell-based
FaDu CSC = assay: Cancer stem cells, Cell Titer-Glo 72 hours (Test Example 3); conditions: Homo sapiens, FaDu, 72 h
ACHN = assay: Bulk cancer cells, Cell Titer-Glo 72 hours (Test Example 2); conditions: Homo sapiens, ACHN, 72 h
Procedure: (§1) Tubes of 3× drug (60 uM in 500 uL complete media) were prepared from 5 mM stock solutions in DMSO. […] To treat cells, 50 uL of drug from the dilution plate was removed and added to the cell plates. […] Cells were harvested 72 hours after drug addition using Cell Titer-Glo (Promega) and luminescence measured on a plate reader.

A549 = assay: as above; conditions: Homo sapiens
Procedure: as §1

FaDu = assay: as above; conditions: Homo sapiens
Procedure: as §1

A549 CSC = assay: Cancer stem cells, Cell Titer-Glo 72 hours (Test Example 3); conditions: Homo sapiens
ACHN CSC = assay: as above; conditions: Homo sapiens, ACHN, 72 h

| Compound | IC50 (FaDu CSC) [µM] | IC50 (ACHN) [µM] | IC50 (A549) [µM] | IC50 (FaDu) [µM] | IC50 (A549 CSC) [µM] | IC50 (ACHN CSC) [µM] |
| --- | --- | --- | --- | --- | --- | --- |
| CCN(CC)CCNC(=O)c1c(C)[nH]c(/C=C2\C(=O)Nc3ccc(-c4ccc(C#N)c(F)c4)cc32)c1C [Example 269] | 3.48 | 13.3 | 14.5 | 14 | 12 | 1.71 |
| CCN(CC)CCNC(=O)c1c(C)[nH]c(/C=C2\C(=O)Nc3ccc(-c4cnc5ccccc5n4)cc32)c1C [Example 185] | 0.04 | 5.73 | 8.13 | 2.66 | 42.3 | 5.59 |
| CCN(CC)CCNC(=O)c1c(C)[nH]c(/C=C2\C(=O)Nc3ccc(-c4ccc(OC)cn4)cc32)c1C [Example 188] | 0.16 | 6.44 | 10.8 | 7.01 | 8.89 | 1.08 |
| CCN(CC)CCNC(=O)c1c(C)[nH]c(/C=C2\C(=O)Nc3ccc(-c4cncnc4)cc32)c1C [Example 207] | 10.1 | 3.66 | 7.33 | 4.55 | 18 | 0.55 |
| Cc1[nH]c(/C=C2\C(=O)Nc3ccc(-c4csc(-c5ccccc5)n4)cc32)c(C)c1S(=O)(=O)N1CCOCC1 [Example 147] | 0.21 | 10.7 | 7.28 | 11.4 | 3.73 | 0.56 |
| CCN(CC)CCNC(=O)c1c(C)[nH]c(/C=C2\C(=O)Nc3ccc(-c4ncccc4OC)cc32)c1C [Example 189] | 0.07 | 7.14 | 7.48 | 2.63 | 6.84 | 1.41 |
| Cc1[nH]c(/C=C2\C(=O)Nc3ccc(-c4ccc(-c5ccccc5)s4)cc32)c(C)c1C(=O)N1CCOCC1 [Example 11] | 2.47 | 12.8 | 10.1 | 21.1 | 11 | 0.23 |
| CCN(CC)CCNC(=O)c1c(C)[nH]c(/C=C2\C(=O)Nc3ccc(-c4ccc(C=O)cc4)cc32)c1C [Example 266] | 7.51 | 2.81 | 10.6 | 12.1 | 5.84 | 4.34 |
| CCN(CC)CCNC(=O)CCc1c(C)[nH]c(/C=C2\C(=O)Nc3ccc(-c4csc(-c5ccncc5)n4)cc32)c1C [Example 167] | 4.57 | 7.42 | 10.1 | 28 | 35.7 | 1.24 |
| CCN(CC)CCNC(=O)c1c(C)[nH]c(/C=C2\C(=O)Nc3ccc(-c4ccc5c(c4)CC(=O)N5)cc32)c1C [Example 270] | 15.5 | 18.9 | 19.7 | 25.4 | 29.2 | 20.8 |
| CCN(CC)CCNC(=O)c1c(C)[nH]c(/C=C2\C(=O)Nc3cc(-c4cnc5ccccc5c4)ccc32)c1C [Example 257] | 2.83 | – | 15.8 | 12.9 | 11.6 | 1.07 |
| O=C1Nc2ccc(-c3csc(C4CCNCC4)n3)cc2/C1=C/c1cc2c([nH]1)CCCC2 [Example 157] | 12 | 18.8 | 9.39 | 21.1 | 22.1 | 2.68 |
| O=C1Nc2ccc(-c3csc(-c4ccncc4)n3)cc2/C1=C/c1ncc[nH]1 [Example 153] | – | 0.29 | 14.8 | 3.42 | 2.6 | 9.21 |
| CCN(CC)CCNC(=O)c1c(C)[nH]c(/C=C2\C(=O)Nc3ccc(-c4csc(C(=O)O)c4)cc32)c1C [Example 202] | 14.1 | 7.74 | 7.79 | – | 14.1 | 1.28 |
| CCN(CC)CCNC(=O)c1c(C)[nH]c(/C=C2\C(=O)Nc3cc(-c4ccc5ccccc5n4)ccc32)c1C [Example 253] | 5.15 | – | 16.4 | 16.6 | 6.59 | 1.36 |

Continued, values first:

| IC50 (FaDu CSC) [µM] | IC50 (ACHN) [µM] | IC50 (A549) [µM] | IC50 (FaDu) [µM] | IC50 (A549 CSC) [µM] | IC50 (ACHN CSC) [µM] | Compound |
| --- | --- | --- | --- | --- | --- | --- |
| 5.97 | 9.53 | 3.73 | 4.93 | 4.13 | 0.98 | CCN(CC)CCNC(=O)c1c(C)[nH]c(/C=C2\C(=O)Nc3ccc(-c4nc5ccccc5s4)cc32)c1C [Example 191] |
| 2.24 | 10.9 | 7.07 | 7.45 | 42.6 | 6.97 | CCN(CC)CCNC(=O)c1c(C)[nH]c(/C=C2\C(=O)Nc3cc(-c4cnc5ccccc5n4)ccc32)c1C [Example 251] |
| 0.78 | 2.6 | 5.8 | 5.3 | 2.93 | 0.17 | CCN(CC)CCNC(=O)c1c(C)[nH]c(/C=C2\C(=O)Nc3cc(-c4csc(-n5cccn5)n4)ccc32)c1C [Example 254] |
| 3.42 | 4.58 | 3.79 | 3.17 | 6.66 | 0.64 | CCN(CC)CCNC(=O)c1c(C)[nH]c(/C=C2\C(=O)Nc3ccc(-c4cnsc4)cc32)c1C [Example 200] |
| 2.64 | 2.66 | 2.88 | 4.83 | 8.61 | 0.42 | CCN(CC)CCNC(=O)c1c(C)[nH]c(/C=C2\C(=O)Nc3cc(-c4cccc5ncccc45)ccc32)c1C [Example 258] |
| 0.03 | 5.05 | 3.18 | 2.13 | 13.9 | 0.71 | CCN(CC)CCNC(=O)c1c(C)[nH]c(/C=C2\C(=O)Nc3ccc(-c4nccc5ccccc45)cc32)c1C [Example 187] |
| 0.18 | 2.26 | 7.23 | 2.56 | 5.45 | 1.06 | CCN(CC)CCNC(=O)c1c(C)[nH]c(/C=C2\C(=O)Nc3ccc(-c4ccccn4)cc32)c1C [Example 183] |
| 16.2 | 11.6 | 7.07 | 6.81 | 9.85 | 2.14 | CCN(CC)CCNC(=O)c1c(C)[nH]c(/C=C2\C(=O)Nc3ccc(-c4ccncc4)cc32)c1C [Example 208] |
| 0.31 | 2.32 | 5.99 | 4.22 | 12.2 | 0.14 | Cc1ccc(-c2nc(-c3ccc4c(c3)/C(=C/c3[nH]c(C)c(C(=O)NCCN5CCCC5)c3C)C(=O)N4)cs2)cc1 [Example 103] |
| 0.22 | 2.92 | 6.51 | 3.05 | 3.38 | 1.16 | CCN(CC)CCNC(=O)c1c(C)[nH]c(/C=C2\C(=O)Nc3ccc(-c4ccc(C)cn4)cc32)c1C [Example 184] |
| 0.19 | 1.96 | 2.79 | 1.76 | 2.24 | 0.24 | CCN(CC)CCNC(=O)c1c(C)[nH]c(/C=C2\C(=O)Nc3ccc(-c4cccc(OC)n4)cc32)c1C [Example 190] |
| 4.3 | 2.04 | 2.2 | 1.21 | 8.82 | 2.28 | CCN(CC)CCNC(=O)c1c(C)[nH]c(/C=C2\C(=O)Nc3ccc(-c4ccc(C(=O)O)s4)cc32)c1C [Example 209] |
| 9.1 | 2.68 | 2.01 | 3.74 | 3.94 | 0.48 | CCN(CC)CCNC(=O)c1c(C)[nH]c(/C=C2\C(=O)Nc3ccc(-c4cscc4C)cc32)c1C [Example 206] |
| 5.33 | 8.73 | 6.45 | 4.43 | 7.28 | 3.1 | Cc1cc(C)c(/C=C2\C(=O)Nc3ccc(-c4n[nH]c5ccccc45)cc32)[nH]1 [Example 231] |
| 1.46 | 4.11 | 3.65 | 4.46 | 3.16 | 1.63 | CCN(CC)CCNC(=O)c1c(C)[nH]c(/C=C2\C(=O)Nc3cc(-c4ccc(C(=O)c5ccccc5)cc4)ccc32)c1C [Example 264] |
| 21.7 | 9.57 | 6.16 | 5.57 | 18.8 | 2.99 | CCN(CC)CCNC(=O)c1c(C)[nH]c(/C=C2\C(=O)Nc3ccc(-c4csc(-n5ccnc5)n4)cc32)c1C [Example 196] |
| 0.16 | 2.74 | 3.24 | 1.49 | 26.4 | 10.8 | CCN(CC)CCNC(=O)c1c(C)[nH]c(/C=C2\C(=O)Nc3ccc(-c4cnc5cn[nH]c5c4)cc32)c1C [Example 181] |
| 5.11 | 7.88 | 3.71 | 4.68 | 6.64 | 0.62 | CCN(CC)CCNC(=O)c1c(C)[nH]c(/C=C2\C(=O)Nc3ccc(-c4csc(-n5cccn5)n4)cc32)c1C [Example 195] |
| 4.73 | 5.23 | 2.8 | 4.27 | 4.48 | 0.57 | CCN(CC)CCNC(=O)c1c(C)[nH]c(/C=C2\C(=O)Nc3ccc(-c4cccc(C#N)c4C)cc32)c1C [Example 205] |
| 20 | 4.15 | 4.14 | 7.67 | 13.1 | 1.88 | CCN(CC)CCNC(=O)c1c(C)[nH]c(/C=C2\C(=O)Nc3ccc(-c4ncccc4C)cc32)c1C [Example 203] |
| – | 2.74 | 1.8 | 0.92 | 1.51 | 0.33 | CCN(CC)CCNC(=O)c1c(C)[nH]c(/C=C2\C(=O)Nc3ccc(-c4ccc5ccccc5n4)cc32)c1C [Example 186] |
